Drawing on BindingDB's records for doi:10.1016/j.bmcl.2008.04.031 (The University of Tokyo, 2008), this text covers IC50 for two compounds.

pIC50: −log10 of the molar value.

This assay in a line: Degradation promoting activity of FLAG tagged cIAP1 expressed in human HT1080 cells after 3 hrs by Western blotting analysis. A general note: In western blotting, separated proteins are transferred to a membrane and probed.

On to `CC(C)C[C@H](NC(=O)[C@@H](O)[C@H](N)Cc1ccccc1)C(=O)OCCNS(=O)(=O)c1cccc2c(N(C)C)cccc12` [(S)-2-(1-(dimethylamino)naphthalene-5-sulfonamido)ethyl 2-((2S,3R)-3-amino-2-hydroxy-4-phenylbutanamido)-4-methylpentanoate], for which the negative logarithm of the IC50 (pIC50) was 5.73.
For the compound `COC(=O)[C@H](CC(C)C)NC(=O)[C@@H](O)[C@H](N)Cc1ccccc1` [(S)-methyl 2-((2S,3R)-3-amino-2-hydroxy-4-phenylbutanamido)-4-methylpentanoate], the negative-log IC50 (pIC50) was 6.16.

Broadly, the pIC50 is the IC50 on a negative log10 scale, so that one unit is a factor of ten.
